According to PubChem BioAssay (NCI):
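All cell lines were grown in 96-well plates and treated with compound for 48 hours. TGI: concentration producing complete growth inhibition.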

Key:
Assay in all cases: growth of human tumour cells (NCI), 48 h
M14 melanoma = test system: M14 melanoma
K-562 leukemia = test system: K-562 leukemia
T-47D breast = test system: T-47D breast
UACC-257 melanoma = test system: UACC-257 melanoma
U251 CNS = test system: U251 CNS
SW-620 colon = test system: SW-620 colon
ACHN renal = test system: ACHN renal
MDA-MB-435 = test system: MDA-MB-435
OVCAR-3 ovarian = test system: OVCAR-3 ovarian
NCI/ADR-RES ovarian = test system: NCI/ADR-RES ovarian
COLO 205 colon = test system: COLO 205 colon
SNB-75 CNS = test system: SNB-75 CNS
DU-145 prostate = test system: DU-145 prostate
SK-MEL-28 melanoma = test system: SK-MEL-28 melanoma
CAKI-1 renal = test system: CAKI-1 renal
HCT-116 colon = test system: HCT-116 colon
HOP-62 NSCLC = test system: HOP-62 NSCLC
HS 578T breast = test system: HS 578T breast
MDA-N = test system: MDA-N
SK-OV-3 ovarian = test system: SK-OV-3 ovarian
OVCAR-5 ovarian = test system: OVCAR-5 ovarian
NCI-H460 lung = test system: NCI-H460 lung
SNB-19 CNS = test system: SNB-19 CNS
HOP-92 NSCLC = test system: HOP-92 NSCLC
HT29 colon = test system: HT29 colon
OVCAR-4 ovarian = test system: OVCAR-4 ovarian
CCRF-CEM leukemia = test system: CCRF-CEM leukemia
NCI-H522 lung = test system: NCI-H522 lung
RPMI-8226 leukemia = test system: RPMI-8226 leukemia
A549 NSCLC = test system: A549 NSCLC
NCI-H23 lung = test system: NCI-H23 lung
HCC-2998 colon = test system: HCC-2998 colon
MDA-MB-231 breast = test system: MDA-MB-231 breast
LOX IMVI melanoma = test system: LOX IMVI melanoma
SK-MEL-5 melanoma = test system: SK-MEL-5 melanoma
MOLT-4 leukemia = test system: MOLT-4 leukemia
SK-MEL-2 melanoma = test system: SK-MEL-2 melanoma
SF-295 CNS = test system: SF-295 CNS
PC-3 prostate = test system: PC-3 prostate
IGROV1 ovarian = test system: IGROV1 ovarian
UO-31 renal = test system: UO-31 renal
TK-10 renal = test system: TK-10 renal
NCI-H226 lung = test system: NCI-H226 lung
HL-60(TB) leukemia = test system: HL-60(TB) leukemia
OVCAR-8 ovarian = test system: OVCAR-8 ovarian
SN12C renal = test system: SN12C renal
MCF7 breast = test system: MCF7 breast
SR leukemia = test system: SR leukemia
HCT-15 colon = test system: HCT-15 colon
EKVX NSCLC = test system: EKVX NSCLC
UACC-62 melanoma = test system: UACC-62 melanoma
KM12 colon = test system: KM12 colon
RXF 393 renal = test system: RXF 393 renal
MALME-3M melanoma = test system: MALME-3M melanoma
786-0 renal = test system: 786-0 renal

CCP(=O)(CC)C(Cl)Cl
TGI (M14 melanoma): > 100 µM
TGI (K-562 leukemia): > 100 µM
TGI (T-47D breast): > 100 µM
TGI (UACC-257 melanoma): > 100 µM
TGI (U251 CNS): > 100 µM
TGI (SW-620 colon): > 100 µM
TGI (ACHN renal): > 100 µM
TGI (MDA-MB-435): > 100 µM
TGI (OVCAR-3 ovarian): > 100 µM
TGI (NCI/ADR-RES ovarian): > 100 µM
TGI (COLO 205 colon): > 100 µM
TGI (SNB-75 CNS): > 100 µM
TGI (DU-145 prostate): > 100 µM
TGI (SK-MEL-28 melanoma): > 100 µM
TGI (CAKI-1 renal): > 100 µM
TGI (HCT-116 colon): > 100 µM
TGI (HOP-62 NSCLC): > 100 µM
TGI (HS 578T breast): > 100 µM
TGI (MDA-N): > 100 µM
TGI (SK-OV-3 ovarian): > 100 µM
TGI (OVCAR-5 ovarian): > 100 µM
TGI (NCI-H460 lung): > 100 µM
TGI (SNB-19 CNS): > 100 µM
TGI (HOP-92 NSCLC): > 100 µM
TGI (HT29 colon): > 100 µM
TGI (OVCAR-4 ovarian): > 100 µM
TGI (CCRF-CEM leukemia): > 100 µM
TGI (NCI-H522 lung): > 100 µM
TGI (RPMI-8226 leukemia): > 100 µM
TGI (A549 NSCLC): > 100 µM
TGI (NCI-H23 lung): > 100 µM
TGI (HCC-2998 colon): > 100 µM
TGI (MDA-MB-231 breast): > 100 µM
TGI (LOX IMVI melanoma): > 100 µM
TGI (SK-MEL-5 melanoma): > 100 µM
TGI (MOLT-4 leukemia): > 100 µM
TGI (SK-MEL-2 melanoma): > 100 µM
TGI (SF-295 CNS): > 100 µM
TGI (PC-3 prostate): > 100 µM
TGI (IGROV1 ovarian): > 100 µM
TGI (UO-31 renal): > 100 µM
TGI (TK-10 renal): > 100 µM
TGI (NCI-H226 lung): > 100 µM
TGI (HL-60(TB) leukemia): > 100 µM
TGI (OVCAR-8 ovarian): > 100 µM
TGI (SN12C renal): > 100 µM
TGI (MCF7 breast): > 100 µM
TGI (SR leukemia): > 100 µM
TGI (HCT-15 colon): > 100 µM

Cc1ccc(S(=O)(=O)OC2C(O)C(O)OC2C(c2cc(O)c3c(c2O)C(=O)c2ccccc2C3=O)c2cc(O)c3c(c2O)C(=O)c2ccccc2C3=O)cc1 (configuration not stated)
TGI (M14 melanoma): 8.71 µM
TGI (EKVX NSCLC): > 10 µM
TGI (K-562 leukemia): > 10 µM
TGI (T-47D breast): > 10 µM
TGI (UACC-257 melanoma): > 10 µM
TGI (SW-620 colon): > 10 µM
TGI (COLO 205 colon): 4.85 µM
TGI (SNB-75 CNS): > 10 µM
TGI (DU-145 prostate): > 10 µM
TGI (SK-MEL-28 melanoma): > 10 µM
TGI (CAKI-1 renal): 8.9 µM
TGI (HOP-62 NSCLC): > 10 µM
TGI (MDA-N): > 10 µM
TGI (SK-OV-3 ovarian): > 10 µM
TGI (UACC-62 melanoma): > 10 µM
TGI (HT29 colon): > 10 µM
TGI (CCRF-CEM leukemia): > 10 µM
TGI (RPMI-8226 leukemia): 8.67 µM
TGI (A549 NSCLC): > 10 µM
TGI (NCI-H23 lung): 8.93 µM
TGI (HCC-2998 colon): > 10 µM
TGI (KM12 colon): > 10 µM
TGI (MDA-MB-231 breast): > 10 µM
TGI (SK-MEL-5 melanoma): > 10 µM
TGI (MOLT-4 leukemia): > 10 µM
TGI (SF-295 CNS): 9.33 µM
TGI (PC-3 prostate): 9.43 µM
TGI (RXF 393 renal): > 10 µM
TGI (IGROV1 ovarian): > 10 µM
TGI (TK-10 renal): > 10 µM
TGI (MALME-3M melanoma): 6.98 µM
TGI (HL-60(TB) leukemia): 4.52 µM
TGI (OVCAR-8 ovarian): > 10 µM
TGI (SN12C renal): > 10 µM
TGI (MCF7 breast): > 10 µM
TGI (SR leukemia): > 10 µM
TGI (HCT-15 colon): > 10 µM
TGI (786-0 renal): > 10 µM
